The record followed here is PMC2409616 (British Journal of Cancer, 2004).

Values joined by “and” are separate entries in the source; they are usually repeats but may differ in a detail not shown here. Equal values may be shown once. Read-outs that look alike come from different tables or passages of the source. Some results are limits rather than exact numbers.

The IC50 is the point on the concentration scale where inhibition reaches its midpoint.

Data set [1] has as its system SiHa-NTR^puro cells. The data set is described as follows: Metabolic consumption of prodrug in stirred single-cell suspensions (loss from extracellular medium). The conditions noted are these: corrected to 10^6 cells ml^−1, mean±s.e.m., 2–3 cell suspensions.
The test system of data set [2] is UV4. The data set is described as follows: cells. The conditions noted are these: Cricetulus griseus, UV4, 4 h, read-out: IC50 following 4 h drug exposure.
In data set [3] the test system is V79^puro cells (NTR−ve).
For data set [4], the system named is SiHa. The data set is described as follows: cells. The conditions noted are these: Homo sapiens, 4 h, read-out: IC50 following 4 h drug exposure.
The test system of data set [5] is AA8. Description: cells. The conditions noted are these: Cricetulus griseus, CHO-AA8, 4 h, read-out: IC50 following 4 h drug exposure.
Data set [6] deals with SiHa cells. Description: Metabolic consumption of prodrug in stirred single-cell suspensions (loss from extracellular medium). To be noted: corrected to 10^6 cells ml^−1, mean±s.e.m., 2–3 cell suspensions.
The subject of data set [7] is UV4 cells.
Data set [8] has as its system V79-NTR^puro cells.
For data set [9], the system named is V79^puro. The data set is described as follows: cells. To be noted: Cricetulus griseus, 4 h, read-out: IC50 following 4 h drug exposure.
Data set [10] concerns WiDr. Description: cells. The conditions noted are these: Homo sapiens, 4 h, read-out: IC50 following 4 h drug exposure.
The subject of data set [11] is UV4.
The subject of data set [12] is SiHa-NTR^puro MCLs.
For data set [13], the system named is SiHa MCLs. Description: Transport through multicellular layers (two-chamber diffusion apparatus). To be noted: 100 μM in donor compartment.

Regarding `NC(=O)c1cc(N2CC2)c([N+](=O)[O-])cc1[N+](=O)[O-]` [compound 1, 5-(aziridin-1-yl)-2,4-dinitrobenzamide, reference compound], the “First-order rate constant k of metabolic consumption” value in data set [1] was 0.22 ± 0.06 h⁻¹; in data set [3] (Chinese hamster), 0.0010 ± 0.0004 h⁻¹; in [6], 0.0066 ± 0.0001 h⁻¹; in data set [8] (Chinese hamster), 0.08 ± 0.03 h⁻¹. Moreover, the IC50 was 135 ± 28 µM in [2]; 277 ± 36 µM in [4]; 2480 ± 260 µM in [5]; 2950 ± 113 µM in data set [9]; 485 ± 34 µM in data set [10]. Further, the “Bioactivity of HPLC fraction against UV4 cells” value (“Bioactivity of HPLC fraction” for short) in [7] (extracellular medium of V79-NTR^puro suspensions (5 × 10^6 ml^−1, 3 h) with CB 1954) is on record as “weak cytotoxicity”.
For the compound `NC(=O)c1cc(N2CC2)c([N+](=O)[O-])cc1NO` [compound 2], the IC50 in [2] is 6.3 µM; in data set [5] it was 22 µM. The “AA8/UV4 intra-experiment IC50 ratio” value in data set [11] is listed as 3.4. Further, in data set [7], the “Bioactivity of HPLC fraction” value was “significant cytotoxicity”. For the same compound, in data set [12], the “Appearance of metabolite in donor and receiver compartments” value (shortened to “Appearance of metabolite”) is “not detected in either compartment”.
Turning to `NC(=O)c1cc(N2CC2)c([N+](=O)[O-])cc1N` [compound 3], the IC50 in data set [2] stood at 3.7 ± 0.7 µM; in data set [4], 7.9 ± 3.3 µM; in data set [5] it was 28 ± 8 µM; in data set [9], 56 ± 7 µM; in data set [10], 21 ± 3 µM. Further, the “Bioactivity of HPLC fraction” value in data set [7] was “significant cytotoxicity”. Also, the “Appearance of metabolite” value in data set [12] is reported as “accumulated in both compartments”. The “Initial flux of metabolite” value in data set [12] (human) was about 0.2 µM/h.
On to `NC(=O)c1cc(N2CC2)c(NO)cc1[N+](=O)[O-]` [compound 4, 5-(aziridin-1-yl)-4-hydroxylamino-2-nitrobenzamide], for which the IC50 was found to be 0.62 ± 0.05 µM in data set [2]; 45 ± 9 µM in data set [4]; 39 ± 6 µM in [5]; 6.9 ± 0.6 µM in data set [9]; 26 ± 5 µM in data set [10]. Further, the “Appearance in the receiver compartment in the presence of an MCL vs bare support membrane” value in data set [13] was “greatly reduced”. For the same compound, in [11], the “AA8/UV4 intra-experiment IC50 ratio” value is 63 and 63±5. Further, the “Fold less potent in the four repair competent cell lines than in UV4” value in data set [11] was 11–70 fold. For the same compound, in data set [7], the “Bioactivity of HPLC fraction” value is “greatest activity”. The “Appearance of metabolite” value in [12] is “not detected at all in the receiver compartment”.
Take `NC(=O)c1cc(N2CC2)c(N)cc1[N+](=O)[O-]` [compound 5]: the IC50 was 47 ± 5 µM in data set [2]; 163 ± 39 µM in data set [4]; 62 ± 12 µM in data set [5]; 238 ± 6 µM in data set [9]; 141 ± 34 µM in data set [10]. Further, the “AA8/UV4 intra-experiment IC50 ratio” value in data set [11] was 1.2±0.1. Moreover, the “Bioactivity of HPLC fraction” value in data set [7] was “significant cytotoxicity”. The “Appearance of metabolite” value in data set [12] is reported as “accumulated in both compartments”.
For the compound `NC(=O)c1cc(N(CCCl)CCCl)c([N+](=O)[O-])cc1[N+](=O)[O-]` [compound 7, 5-[N,N-bis(2-chloroethyl)amino]-2,4-dinitrobenzamide], the “First-order rate constant k of metabolic consumption” value in data set [1] is 0.6 ± 0.2 h⁻¹; in [3] (V79^puro, corrected to 10^6 cells ml^−1, mean±s.e.m., 2–3 cell suspensions), 0.0020 ± 0.0001 h⁻¹; in data set [6], under 0.001 h⁻¹; in data set [8] (V79-NTR^puro, corrected to 10^6 cells ml^−1, mean±s.e.m., 2–3 cell suspensions) it was 0.17 ± 0.003 h⁻¹. For the same compound, the IC50 is 761 ± 89 µM in data set [2]; over 800 µM in [4]; about 1000 µM in [5]; over 500 µM in [9]; over 1000 µM in data set [10]. For the same compound, in data set [11], the “AA8/UV4 intra-experiment IC50 ratio” value is “ca 1.3”.
For the compound `NC(=O)c1cc(N(CCCl)CCCl)c([N+](=O)[O-])cc1NO` [compound 8], the IC50 came out at 0.045 ± 0.001 µM in data set [2]; 2.07 ± 0.08 µM in [4]; 2.3 ± 0.1 µM in data set [5]; 1.74 ± 0.23 µM in data set [9]; 1.2 ± 0.1 µM in [10]. In addition, the “AA8/UV4 intra-experiment IC50 ratio” value in data set [11] is on record as 51±1.
